Reference: patent publication US20040162286A1, “Substituted 6-(2-tolyl)-triazolopyrimidines as fungicides” (priority 2001, published 2004)

The compounds below were run on Plasmopara viticola (assay: Fungicidal control of grape downy mildew (Comparison Trial 3, inoculation the next day)). Settings: 250 ppm active ingredient; grape cuttings; inoculated next day; untreated plants infected to 80%.
Format: in vivo
Description: The active compounds, separately or together, were formulated as a 10% emulsion in a mixture of 70% by weight of cyclohexanone, 20% by weight of Nekanil® LN (Lutensol® AP6, wetting agent having emulsifying and dispersant action based on ethoxylated alkylphenols) and 10% by weight of Wettol® EM (nonionic emulsifier based on ethoxylated castor oil) and diluted with water to the desired concentration. Grape cuttings of the cultivar “Müller-Thurgau” were grown in pots to the 4 to 5 leaf stage. These plants were sprayed to run-off with an aqueous suspension, containing the concentration of active ingredient or their mixture mentioned in the table below, prepared from a stock solution containing 10% of the active ingredient, 85% cyclohexanone and 5% emulsifier. The plants were allowed to air-dry. The next day they were inoculated with an aqueous spore suspension of Plasmopara viticola by spraying it at the lower leaf-side. Then the trial plants were immediately transferred for 24 h to a humid chamber with 22-24° C. and a relative humidity close to 100%. For a period of 5 days, cultivation followed in a greenhouse at 20-25° C. and a relative humidity about 50-80%. To stimulate the outbreak of the disease symptoms, the plants were transferred to a humid chamber again for 24 hours. Then the extent of fungal attack on the lower leaf surface was visually assessed as % diseased leaf area.
`Cc1ccccc1-c1c(Cl)nc2ncnn2c1NC(C)C(F)(F)F` (centres unmarked) [Compound A] was tested, and the “infection (% diseased leaf area, lower leaf surface)” value was 80%.

These compounds were tested on Alternaria solani (assay: Fungicidal control of early blight on tomatoes, protective spray). Settings: 63 ppm active ingredient; tomato plants; assessed after 6 days; untreated plants infected to 90%.
Format: in vivo
Description: The active compounds, separately or together, were formulated as a 10% emulsion in a mixture of 70% by weight of cyclohexanone, 20% by weight of Nekanil® LN (Lutensol® AP6, wetting agent having emulsifying and dispersant action based on ethoxylated alkylphenols) and 10% by weight of Wettol® EM (nonionic emulsifier based on ethoxylated castor oil) and diluted with water to the desired concentration. Young seedlings of tomato plants of the variety “Groβe Fleischtomate St. Pierre” were grown in pots to the 2 to 4 leaf stage. These plants were sprayed to run-off with an aqueous suspension, containing the concentration of active ingredient mentioned in the table below, prepared from a stock solution containing 10% of the active ingredient, 85% cyclohexanone and 5% emulsifier. The next day, the treated plants were inoculated with an aqueous suspension of Alternaria solani containing 0.2×10^6 spores per ml. Then the trial plants were immediately transferred to a humid chamber. After 6 days at 20 to 23° C. and a relative humidity close to 100%, the extent of fungal attack on the leaves was visually assessed as % diseased leaf area. The test was conducted as described in Comparison trial 1.
In the case of `Cc1ccccc1-c1c(Cl)nc2ncnn2c1NC(C)C(F)(F)F` (centres unmarked) [Compound A], the “infection (% diseased leaf area)” value is reported as 15%.

Same assay, conditions: 250 ppm active ingredient; tomato plants; untreated plants infected to 90%
In the case of `CCC(C)Nc1c(-c2ccc(F)cc2C)c(Cl)nc2ncnn12` (racemic) [I-35], the “infection (% diseased leaf area)” value is reported as “no infection”. `Cc1cc(F)ccc1-c1c(Cl)nc2ncnn2c1N1CCC(C)CC1` [I-30] was tested, and the “infection (% diseased leaf area)” value was “no infection”. `C=C(C)CN(CC)c1c(-c2ccc(F)cc2C)c(Cl)nc2ncnn12` [I-28] was tested, and the “infection (% diseased leaf area)” value was “no infection”. `Cc1cc(Cl)ccc1-c1c(Cl)nc2ncnn2c1N1CCC(C)CC1` [I-66] was tested, and the “infection (% diseased leaf area)” value was “no infection”. `Cc1cc(F)ccc1-c1c(Cl)nc2ncnn2c1NC(C)C(C)(C)C` (racemic) [I-41] was tested, and the “infection (% diseased leaf area)” value was “no infection”. `C=C(C)CN(CC)c1c(-c2c(C)cccc2F)c(Cl)nc2ncnn12` [I-7] was tested, and the “infection (% diseased leaf area)” value was “no infection”. In the case of `Cc1cc(F)ccc1-c1c(Cl)nc2ncnn2c1NC(C)C(F)(F)F` (racemic) [I-44], the “infection (% diseased leaf area)” value is reported as “no infection”. In the case of `Cc1cccc(F)c1-c1c(Cl)nc2ncnn2c1N1CCC(C)CC1` [I-9], the “infection (% diseased leaf area)” value is reported as “no infection”. `Cc1cccc(F)c1-c1c(Cl)nc2ncnn2c1NC1CCCC1` [I-10] was tested, and the “infection (% diseased leaf area)” value was “no infection”. In the case of `Cc1cc(Cl)ccc1-c1c(Cl)nc2ncnn2c1NCC(F)(F)F` [I-83], the “infection (% diseased leaf area)” value is reported as “no infection”. With `Cc1cc(F)ccc1-c1c(Cl)nc2ncnn2c1NC(C)C(C)C` (racemic) [I-38] the “infection (% diseased leaf area)” value was “no infection”.

The compounds below were run on Blumeria graminis f. sp. tritici (assay: Fungicidal control of powdery mildew on wheat, protective spray). Settings: 63 ppm active ingredient, assessed after 7 days, untreated plants infected to 85%.
Format: in vivo
Text: The active compounds, separately or together, were formulated as a 10% emulsion in a mixture of 70% by weight of cyclohexanone, 20% by weight of Nekanil® LN (Lutensol® AP6, wetting agent having emulsifying and dispersant action based on ethoxylated alkylphenols) and 10% by weight of Wettol® EM (nonionic emulsifier based on ethoxylated castor oil) and diluted with water to the desired concentration. The first fully developed leaves of pot grown wheat of the variety “Kanzler” were sprayed to run-off with an aqueous suspension, containing the concentration of active ingredient or their mixture mentioned in the table below, prepared from a stock solution containing 10% of the active ingredient, 85% cyclohexanone and 5% emulsifier. The next day the treated plants were inoculated with spores of Blumeria graminis f. sp. tritici by shaking heavily infestated stock plants over the treated pots. After cultivation in the greenhouse for 7 days at 22-26° C. and a relative humidity between 60 to 90% the extent of fungal attack on the leaves was visually assessed as % diseased leaf area. The test was conducted as described in Comparison trial 2.
With `Cc1ccccc1-c1c(Cl)nc2ncnn2c1NC(C)C(F)(F)F` (centres unmarked) [Compound A] the “infection (% diseased leaf area)” value was 30%.
